Assay results published in ChEMBL document CHEMBL1133460, “Synthesis and biological evaluation of certain alpha,beta-unsaturated ketones and their corresponding fused pyridines as antiviral and cytotoxic agents” (J Med Chem, 2000).
≈ marks a conversion by molar mass, not a printed value. Calls of active or inactive are those of the source. The rule behind the calls is not given here.

Experiments:
Human alphaherpesvirus 1 [1] = experiment: Concentration which caused 50% loss of the monolayer present around the viral plaques in uM; assay type: functional, organism-based
Human alphaherpesvirus 1 [2] = experiment: Concentration which caused 50% loss of the monolayer present around the viral plaques in ug/mL.; assay type: functional, organism-based
Human alphaherpesvirus 1 [3] = experiment: Minimum antiviral concentration proved to be lethal to viral population in ug/mL.; assay type: functional
Human alphaherpesvirus 1 [4] = experiment: In vitro antiviral activity against Herpes Simplex-1 virus (HSV-1) expressed as percent reduction in the number of viral plaques; assay type: functional; design: concentration or dose not given beside the values
Human alphaherpesvirus 1 [5] = experiment: Minimum antiviral concentration proved to be lethal to viral population in uM; assay type: functional
[6] = tested on: Human immunodeficiency virus 1; experiment: (§1) In vitro effective concentration against HIV-1 cytopathic effect in T4 cells; Inactive; assay type: functional, organism-based
MT4 = experiment: In vitro inhibitory activity against uninfected T4 cells; assay type: functional, cell-based; conditions: Homo sapiens
[7] = Therapeutic index (IC50/EC50) was determined; conditions: read-out: TI50
[8] = In vitro effective concentration against HIV-1 cytopathic effect in T4 cells; assay type: functional, cell-based; conditions: Homo sapiens
Ovarian cancer cell line [9] = experiment: In vitro median growth inhibitory concentration against ovarian cancer cell lines; assay type: functional; conditions: Homo sapiens
[10] = In vitro median growth inhibitory concentration against colon cancer cell lines; assay type: functional; conditions: Homo sapiens
Tumor cell line [11] = experiment: Median lethal concentration was estimated; assay type: ADME, cell-based; conditions: human
Breast cancer cell line [12] = experiment: In vitro median growth inhibitory concentration against breast cancer cell lines; assay type: functional; conditions: Homo sapiens
[13] = tested on: Panel prostate (Carcinoma cell lines); experiment: In vitro median growth inhibitory concentration against prostate cancer cell lines; assay type: functional; conditions: Homo sapiens
NSCLC [14] = experiment: In vitro growth inhibitory concentration against non-small-cell lung cancer; assay type: functional; conditions: Homo sapiens
[15] = tested on: Panel prostate (Carcinoma cell lines); experiment: In vitro growth inhibitory concentration against prostate cancer cell lines; assay type: functional; conditions: Homo sapiens
Ovarian cancer cell line [16] = experiment: In vitro growth inhibitory concentration against ovarian cancer cell lines; assay type: functional; conditions: Homo sapiens
[17] = Full panel mean-graph midpoint (MG-MID)
[18] = tested on: Panel leukemia (Carcinoma cell lines); experiment: In vitro growth inhibitory concentration against leukemia tumor cell lines; assay type: functional; conditions: Homo sapiens
[19] = tested on: Panel leukemia (Carcinoma cell lines); experiment: In vitro median growth inhibitory conc. against leukemia was estimated.; assay type: functional; conditions: Homo sapiens
[20] = tested on: Panel CNS (Carcinoma cell lines); experiment: In vitro growth inhibitory concentration against CNS cancer cell lines; assay type: functional; conditions: Homo sapiens
Breast cancer cell line [21] = experiment: In vitro growth inhibitory concentration against breast cancer cell lines; assay type: functional; conditions: Homo sapiens
[22] = Full panel mean-graph midpoint (MG-MID).
[23] = tested on: Panel renal (Carcinoma cell lines); experiment: In vitro growth inhibitory concentration against renal cancer cell lines; assay type: functional; conditions: Homo sapiens
[24] = tested on: Panel melanoma (Carcinoma cell lines); experiment: In vitro median growth inhibitory concentration against melanoma cell lines; assay type: functional; conditions: Homo sapiens
[25] = tested on: Panel melanoma (Carcinoma cell lines); experiment: In vitro growth inhibitory concentration against melanoma cancer cell lines; assay type: functional; conditions: Homo sapiens
[26] = In vitro growth inhibitory concentration against colon cancer tumor cell lines; assay type: functional; conditions: Homo sapiens
NSCLC [27] = experiment: In vitro median growth inhibitory concentration against non-small-cell lung cancer; assay type: functional; conditions: Homo sapiens
[28] = tested on: Panel renal (Carcinoma cell lines); experiment: In vitro median growth inhibitory concentration against renal cancer cell lines; assay type: functional; conditions: Homo sapiens
[29] = tested on: Panel CNS (Carcinoma cell lines); experiment: In vitro median growth inhibitory concentration against CNS cancer cell lines; assay type: functional; conditions: Homo sapiens
Homo sapiens = species on record: Homo sapiens; experiment: Selectivity ratio between the full panel MG-MID and leukemia subpanel MG-MID was determined.; assay type: functional
Tumor cell line [30] = experiment: In vitro for median growth inhibitory concentration against non small lung cancer cell lines; assay type: functional; conditions: Homo sapiens
Tumor cell line [31] = experiment: In vitro for median growth inhibitory concentration against breast cancer cell lines; assay type: functional; conditions: Homo sapiens
Tumor cell line [32] = experiment: In vitro for median growth inhibitory concentration against prostate cancer cell lines; assay type: functional; conditions: Homo sapiens
Tumor cell line [33] = experiment: In vitro for median growth inhibitory concentration against melanoma cell lines; assay type: functional; conditions: Homo sapiens
T4 = experiment: as §1; assay type: functional, cell-based; conditions: Homo sapiens
Tumor cell line [34] = experiment: In vitro for median growth inhibitory concentration against leukemia; assay type: functional; conditions: Homo sapiens
Tumor cell line [35] = experiment: In vitro for growth inhibitory concentration against non small lung cancer cell lines; assay type: functional; conditions: Homo sapiens
Tumor cell line [36] = experiment: In vitro for median growth inhibitory concentration against ovarian cancer cell lines; assay type: functional; conditions: Homo sapiens
Tumor cell line [37] = experiment: In vitro for median growth inhibitory concentration against CNS cancer cell lines; assay type: functional; conditions: Homo sapiens
Tumor cell line [38] = experiment: In vitro for median growth inhibitory concentration against renal cancer cell lines; assay type: functional; conditions: Homo sapiens
Tumor cell line [39] = experiment: In vitro for median growth inhibitory concentration against colon cancer cell lines; assay type: functional; conditions: Homo sapiens

SMILES | IC50 (Human alphaherpesvirus 1 [1]) [nM] | IC50 (Human alphaherpesvirus 1 [2]) [µg/mL] | MAC (Human alphaherpesvirus 1 [3]) [µg/mL] | Reduction (Human alphaherpesvirus 1 [4]) [%] | MAC (Human alphaherpesvirus 1 [5]) [µM] | EC50 [6] | IC50 (MT4) [µM] | GI50 (Ovarian cancer cell line [9]) [µM] | GI50 [10] [µM] | GI50 (Breast cancer cell line [12]) [µM] | GI50 [13] [µM] | TGI (Ovarian cancer cell line [16]) [µM] | MG-MID [17] [µM] | TGI [18] [µM] | GI50 [19] [nM] | TGI [20] [µM] | TGI (Breast cancer cell line [21]) [µM] | TGI [23] [µM] | GI50 [24] [µM] | TGI [25] [µM] | other results
CN1C/C(=C\c2ccc(Cl)cc2)C(=O)/C(=C/c2ccc(Cl)cc2)C1 | 690 | 0.2 (≈ 0.558 µM) | 0.02 | 93 | 0.07 | – | – | – | – | – | – | – | – | – | – | – | – | – | – | – | –
Cc1ccc(/C=C2\CN(C)Cc3c2nc(O)c(C#N)c3-c2ccc(C)cc2)cc1 | – | – | – | – | – | Not Active | > 200 | – | – | – | – | – | – | – | – | – | – | – | – | – | –
C[C@@]1(CO)[C@H](O)CC[C@@]2(C)[C@H]1CC[C@H]1C[C@@H]3C[C@@]12CC[C@]3(O)CO [APHIDICOLIN] | 590 | 0.2 (≈ 0.591 µM) | 0.005 | 100 | 0.02 | – | – | – | – | – | – | – | – | – | – | – | – | – | – | – | –
CN1C/C(=C\c2ccncc2)C(=O)/C(=C/c2ccncc2)C1 | – | – | – | – | – | – | > 200 | – | – | – | – | – | – | – | – | – | – | – | – | – | selectivity ratio [7]: > 3.09; EC50 [8]: 64.7 µM
COc1ccc(/C=C2\CN(C)CC3=C2N=C(S)NC3c2ccc(OC)cc2)cc1 (stereo not given) | – | – | – | – | – | Not Active | 6.8 | 5 | 4 | 11.1 | 9.1 | 76.4 | 4.9 | 36.3 | 2000 | 81.9 | 68.1 | 97.2 | 11.7 | 83.1 | LC50 (Tumor cell line [11]): 91.8 µM; TGI (NSCLC [14]): 93.6 µM; TGI [15]: 30.1 µM; MG-MID [22]: 56.3 µM; TGI [26]: 76.3 µM; GI50 (NSCLC [27]): 6.5 µM; GI50 [28]: 5.9 µM; GI50 [29]: 30 µM; Ratio (Homo sapiens): 2.5
CN1C/C(=C\c2cccs2)C2=NN(c3ccccc3)C(c3cccs3)C2C1 (stereo not given) | – | – | – | – | – | Not Active | 9.1 | 24.2 | 3.8 | 23.6 | 19.3 | > 100 | 72.9 | 52.2 | 2200 | > 100 | > 100 | > 100 | 42.5 | > 100 | LC50 (Tumor cell line [11]): 95.8 µM; TGI (NSCLC [14]): > 100 µM; TGI [15]: > 100 µM; MG-MID [22]: 8.5 µM; TGI [26]: 87.1 µM; GI50 (NSCLC [27]): 20.8 µM; GI50 [28]: 65.3 µM; GI50 [29]: 35.7 µM; Ratio (Homo sapiens): 3.9
CN1C/C(=C\c2cccs2)C(=O)/C(=C/c2cccs2)C1 | 660 | 0.2 (≈ 0.663 µM) | 0.1 | 33 | 3.3 | – | 15.2 | – | – | – | – | 81.4 | – | 51.6 | – | 82.7 | 75.4 | 70.4 | – | 84.1 | GI50 (Tumor cell line [30]): 36.5 µM; GI50 (Tumor cell line [31]): 28.7 µM; GI50 (Tumor cell line [32]): 23.9 µM; GI50 (Tumor cell line [33]): 34.6 µM; Inhibition (T4): inactive; GI50 (Tumor cell line [34]): 10.6 µM; TGI (Tumor cell line [35]): 90.1 µM; GI50 (Tumor cell line [36]): 23.5 µM; TGI [26]: 72.2 µM; GI50 (Tumor cell line [37]): 36.6 µM; GI50 (Tumor cell line [38]): 24.2 µM; GI50 (Tumor cell line [39]): 23.7 µM
Cc1ccc(/C=C2\CN(C)CC3C2=NN(c2ccccc2)C3c2ccc(C)cc2)cc1 (stereo not given) | – | – | – | – | – | Not Active | > 200 | 92.8 | > 100 | > 100 | 69.5 | – | 81 | – | 37400 | – | – | – | 77.9 | – | GI50 (NSCLC [27]): 97.4 µM; GI50 [28]: 83.7 µM; GI50 [29]: 77 µM; Ratio (Homo sapiens): 2.2
Cc1ccc(/C=C2\CN(C)C/C(=C\c3ccc(C)cc3)C2O)cc1 | 630 | 0.2 (≈ 0.626 µM) | 0.02 | 82 | 0.06 | – | – | – | – | – | – | – | – | – | – | – | – | – | – | – | –
